Legend:
[1] = molecular target: RNA-directed RNA polymerase (Hepacivirus hominis, UniProt O39930); assay: Inhibitory concentration against RNA dependent RNA polymerase Nonstructural protein 5B (HCV NS5B polymerase) in Hepatitis C virus
[2] = molecular target: RNA-directed RNA polymerase (Hepacivirus hominis) (UniProt O39930); assay: Effective dose for RNA dependent RNA polymerase Nonstructural protein 5B (HCV NS5B polymerase) in Hepatitis C virus
[3] = Maximum concentration upon oral administration to rat at 5 mg/kg; type: ADME, organism-based; parameters: dose 5 mg/kg, route oral; conditions: in vivo
[4] = molecular target: RNA-directed RNA polymerase (Hepacivirus hominis) (UniProt O39930); assay: Ratio for cellular to RNA dependent RNA polymerase Nonstructural protein 5B activity in Hepatitis C virus
Rattus norvegicus [5] = assay: Oral bioavailability in rat; type: functional, organism-based
Rattus norvegicus [6] = assay: Half life was determined upon oral administration to rat; type: functional, organism-based
[7] = molecular target: RNA-directed RNA polymerase (Hepacivirus hominis) (UniProt O39930); assay: Cytotoxic concentration against RNA dependent RNA polymerase Nonstructural protein 5B (HCV NS5B polymerase) in Hepatitis C virus
[8] = Clearance measured in Sprague Dawley rat dosed at 5mg/kg; type: ADME, organism-based; conditions: in vivo

Chain of RNA-directed RNA polymerase (Hepacivirus hominis) (O39930 1-591): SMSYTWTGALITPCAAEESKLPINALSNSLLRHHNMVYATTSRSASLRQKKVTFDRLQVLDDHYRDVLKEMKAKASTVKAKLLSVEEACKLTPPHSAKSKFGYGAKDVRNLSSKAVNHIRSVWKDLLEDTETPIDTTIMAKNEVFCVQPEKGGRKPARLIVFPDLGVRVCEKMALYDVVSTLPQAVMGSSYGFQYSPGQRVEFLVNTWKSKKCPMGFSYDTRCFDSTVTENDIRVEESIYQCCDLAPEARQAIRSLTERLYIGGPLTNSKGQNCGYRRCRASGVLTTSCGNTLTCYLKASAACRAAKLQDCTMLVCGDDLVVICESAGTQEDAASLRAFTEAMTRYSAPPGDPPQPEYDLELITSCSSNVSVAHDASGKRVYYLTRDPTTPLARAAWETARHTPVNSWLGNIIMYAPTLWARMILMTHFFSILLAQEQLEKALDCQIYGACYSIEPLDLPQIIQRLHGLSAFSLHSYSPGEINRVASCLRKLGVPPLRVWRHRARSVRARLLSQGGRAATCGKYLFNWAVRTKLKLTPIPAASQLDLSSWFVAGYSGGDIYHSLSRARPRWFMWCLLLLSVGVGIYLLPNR
Chain of RNA-directed RNA polymerase (O39930 whole entry): as the sequence (O39930 1-591) above

SMILES	IC50 [1] [µM]	ED50 [2] [µM]	Cmax [3] [µM]	Ratio [4]	bioavailability (Rattus norvegicus [5]) [%]	T1/2 (Rattus norvegicus [6]) [h]	CC50 [7] [µM]	clearance [8] [mL/min/kg]
O=C(O)CCC(=O)N/C(=C\c1ccc(Oc2ccccc2I)cc1)C(=O)O	0.79	> 100	–	–	–	–	–	–
O=C(NCCO)/C(=C/c1ccc(Oc2ccccc2Br)cc1)NC(=O)c1ccccc1	2.7	8	1.5	3	76	1	> 50	53.3
Cc1ccc(CCC(=O)N/C(=C\c2ccc(Oc3ccccc3Br)cc2)C(=O)O)cc1	2.6	> 100	–	–	–	–	> 100	–
O=C(O)/C(=C/c1ccc(Oc2ccccc2Br)cc1)NC(=O)c1ccccc1F	0.18	> 100	–	–	–	–	> 100	–
O=C(O)/C(=C/c1ccc(Oc2ccccc2Br)cc1)NC(=O)c1ccc(Br)cc1	0.12	> 100	–	–	–	–	> 100	–
O=C(Nc1ccccc1)/C(=C/c1ccc(Oc2ccccc2Br)cc1)NC(=O)c1ccccc1	> 100	> 50	–	–	–	–	> 50	–
O=C(CO)N/C(=C\c1ccc(Oc2ccccc2I)cc1)C(=O)O	2	> 100	–	–	–	–	–	–
NNC(=O)/C(=C/c1ccc(Oc2ccccc2Br)cc1)NC(=O)c1ccccc1	1	> 50	–	–	–	–	> 50	–
Nc1ccc(Oc2ccc(/C=C(\NC(=O)CCC3CCCC3)C(=O)O)cc2)c(C(F)(F)F)c1	14	5	–	0.4	–	–	> 50	–
O=C(Nc1ccccc1C(=O)O)/C(=C/c1ccc(Oc2ccccc2Br)cc1)NC(=O)c1ccccc1	0.4	> 50	–	–	–	–	> 50	–
O=C(NCc1ccccc1)/C(=C/c1ccc(Oc2ccccc2Br)cc1)NC(=O)c1ccccc1	> 100	> 50	–	–	–	–	> 50	–
O=C(Nc1cccc(O)c1)/C(=C/c1ccc(Oc2ccccc2Br)cc1)NC(=O)c1ccccc1	1.9	15	–	–	–	–	25	–
O=C(O)CCCC(=O)N/C(=C\c1ccc(Oc2ccccc2I)cc1)C(=O)O	0.83	> 100	–	–	–	–	–	–
O=C(CCC1CCCC1)N/C(=C\c1ccc(Oc2ccc(F)cc2Br)cc1)C(=O)O	15	12	–	0.8	–	–	> 100	–
CCc1ccccc1C(=O)N/C(=C\c1ccc(Oc2ccccc2Br)cc1)C(=O)O	0.05	70	–	–	–	–	> 100	–
O=C(Nc1ccccc1O)/C(=C/c1ccc(Oc2ccccc2Br)cc1)NC(=O)c1ccccc1	15	> 50	–	–	–	–	> 50	–
O=C(O)/C(=C/c1ccc(Oc2ccccc2Br)cc1)NC(=O)C1CCCCC1	0.2	> 100	–	–	–	–	–	–
O=C(CCc1ccc(F)cc1)N/C(=C\c1ccc(Oc2ccccc2Br)cc1)C(=O)O	0.6	> 100	–	–	–	–	> 100	–
O=C(Nc1ccc(O)cc1)/C(=C/c1ccc(Oc2ccccc2Br)cc1)NC(=O)c1ccccc1	12	> 50	–	–	–	–	22	–
O=C(Cc1ccc(Cl)cc1)N/C(=C\c1ccc(Oc2ccccc2Br)cc1)C(=O)O	0.94	> 100	–	–	–	–	> 100	–
O=C(O)/C(=C/c1ccc(Oc2ccccc2Br)cc1)NC(=O)c1ccccc1	–	28	9	280	21	1.5	> 100	3.33
O=C(Cc1ccc(I)cc1)N/C(=C\c1ccc(Oc2ccccc2Br)cc1)C(=O)O	1	> 100	–	–	–	–	> 100	–
NC(=O)/C(=C/c1ccc(Oc2ccccc2Br)cc1)NC(=O)c1ccccc1	0.5	20	–	–	–	–	45	–
O=C(CCC1CCCC1)N/C(=C\c1ccc(Oc2ccccc2Br)cc1)C(=O)O	6	12	–	2	–	–	> 100	–
O=C(Cc1ccc(F)cc1)N/C(=C\c1ccc(Oc2ccccc2Br)cc1)C(=O)O	2.2	> 100	–	–	–	–	> 100	–

Reference: ChEMBL document CHEMBL1145278, “Inhibitors of HCV NS5B polymerase. Part 2: Evaluation of the northern region of (2Z)-2-benzoylamino-3-(4-phenoxy-phenyl)-acrylic acid” (Bioorg Med Chem Lett, 2005)
